“Also recorded” adds a separate entry of the source.
What was measured:
[1] = test system: human Fuc-TIV; experiment: Fucosyltransferase reaction with lysates of CHO-cells transfected with human Fuc-TIV; assay type: biochemical; conditions: for share of Fuc-TIV fucose transfer at the terminal (sialylated or non-reducing end) LN unit: residue 3 / terminal LN unit
Procedure: (§1) Transfected Cells and Cell Lysates--The transfection of CHO-cells stably expressing human Fuc-TIV or Fuc-TVII has been described previously (Lowe, J. B., et al., J. Biol. Chem. 266:17467-17477 (1991); Natsuka, S., et al., J. Biol. Chem. 269:16789-16794 (1994)). For the enzyme assays, the cells were lysed in 1% Triton X-100 on ice in the presence of a mixture of protease inhibitors (16 μg/ml benzamidine HCl, 10 μg/ml phenanthroline, 10 μg/ml aprotinin, 10 μg/ml leupeptin, 10 μg/ml pepstatin A, 1 mM PMSF, Pharmingen, San Diego, Calif.).
(§2) Glycan 1 was from Sigma (St. Louis, Mo.), and glycan 2 from Oxford Glycosystems (Abingdon, UK). The others were synthesized enzymatically. Briefly, glycan 11 was constructed from GlcNAcβ1-3Galβ1-OMe (Sigma) by β1,4-galactosylation (Brew, K., et al., Proc. Natl. Acad Sci. USA 59:491-497 (1968)) followed by β1,3-N-acetylglycosaminylation (Seppo, A., et al., Biochem. Cell Biol. 68:44-53 (1990)) and a second round of β1-4-galactosylation. […] Glycan 3 was obtained from glycan 11 by α2,3-sialylation as in (Maaheimo, H., et al., Eur. J. Biochem. 234:616-625 (1995)). Glycan 12 was constructed from the GNβ1-3 'LNβ1-3 'LN (Leppanen, A., et al., Biochemistry 30:9287-9296(1991)) by β1,4-galactosylation, MALDI-TOF MS: (M+Na)^+ m/z 1137.1 (calc. 1137.0). Glycan 4 was obtained by glycan 12 by α2,3-sialylation. Glycan 15 was synthesized as in (Renkonen, O., et al., Biochem. Cell. Biol. 68:1032-1036 (1990)), MALDI-TOF MS: (M+Na)^+ m/z 1136.9 (calc. 1137.0). Glycan 16 was obtained by a 2,3-salylation of 15. In the synthesis of glycan 8, GNβ1-3'LNβ1-3'LN was α1,3 [^14 C]fucosylated at both LN units with α1,3/4-FucTs ofhuman milk and then β1,4-galactosylated. MALDI-TOF MS of the resulting octasaccharide LN β1-3'Lexβ1-3'Lex gave (M+Na)^+ m/z 1429.3 (calc. 1429.3). The octasaccharide was finally α2,3-sialylated to give glycan 8. Degradation of glycan 8 by sialidase and a mixture of β-galactosidaseand β-N-acetylhexosaminidase gave the neutral hexasaccharide [^14 C]Fucα1-3LNβ1-3'[^14 C]Fucα1-3LN, which chromatographed like an authentic marker on paper. In the synthesis of glycan 5, glycan 10 was converted to the pentasaccharide LNβ1-3 '(GNβ1-6 ')LN as in (Niemela, R., et al., Carbohydr. Res. 279:331-338 (1995); Maaheimo, H., et al., Carbohydr. Res. 297:53-59 (1997)), MALDI-TOF MS: (M+Na)^+ m/z 974.8 (calc. 974.9). The product was α2,3-sialylated, α1,3-fucosylated selectively at the distal, sialylated LN-unit (Niemela, R., et al., Carbohydr. Res. 279:331-338 (1995), and treated with β-N-acetylhexosaminidase for removal of the protecting β1-6GN-unit to give glycan 5. Glycan 6, in turn, was obtained by α1,3-fucosylating glycan 9 at the LN unit by human milk α1,3/4-Fuc-Ts. The product was then β1,4-galactosylated and finally α2,3-sialylated. Glycan 7 was synthesized by α2,3-sialylation of the heptasaccharide LNβ1-3'Lexβ1-3'LN,prepared by β1,4-galactosylation of GNβ1-3 'Lexβ1-3 'LN, which had been isolated from a mixture of monofucosylated isomers by wheat germ agglutinin (WGA)-agarose chromatography. LNβ1-3'Lexβ1-3'N was characterized by ^1 H-NMR-spectroscopy, MALDI-TOF MS: (M+Na)^+m/z 1282.5 (calc. 1282.5). Glycan 9 was obtained by β1,3-N-acetylglucosaminylation of LN (Seppo, A., et al., Biochem. Cell Biol. 68:44-53 (1990)), MALDI-TOF MS: (M+Na)^+ m/z 609.7 (calc. 609.5). Glycan 10 was synthesized by β1,4-galactosylation of glycan 9. Glycans 13 and 14 were obtained by separating monofucosylated derivatives of glycan 10 by WGA chromatography. Glycan 13, MALDI-TOF MS: (M+Na)^+ m/z 917.9 (calc. 917.8). Glycan 14, MALDI-TOF MS: (M+Na)^+ m/z 917.8 (calc. 917.8). […]

[2] = test system: human Fuc-TVII; experiment: Fucosyltransferase reaction with lysates of CHO-cells transfected with human Fuc-TVII; assay type: biochemical
Procedure: as §1
as §2, with “chromatography.” for “chromatography. Glycan 13, MALDI-TOF MS: (M+Na)^+ m/z 917.9 (calc. 917.8). Glycan 14, MALDI-TOF MS: (M+Na)^+ m/z 917.8 (calc. 917.8).”

[3] = test system: rat lymphocyte L-selectin; experiment: Stamper-Woodruff assay: in vitro lymphocyte adhesion to high endothelial venules (HEV) of peripheral rat lymph nodes; assay type: cell-based
Procedure: The affinities of the glycans of the invention towards rat lymphocyte L-selectin were analyzed with the in vitro Stamper-Woodruff binding assay. […] The important control saccharides, carrying at the distal termini the fucose-free sLN-residues instead of the sLex-epitopes are consistently without any inhibitory effect.
Lymphocytes were isolated from mesenterical lymph nodes of WF or DA rats and used immediately in the assay after isolation and pretreatment. […] Lymphocytes were over 99% of purity as quantitated by cytocentrifuge preparations. […]
In the Stamper-Woodruff assay 3×10^6 lymphocytes in 100 μl of RPMI containing 0.5% FCS were put on a frozen section inside a 23 mm wax circle, and rotated for 30 min at +4° C. […] The number of bound lymphocytes was calculated per high endothelial venules and 50 to 100 vessels were identified from each sample. […]
Lymphocyte adhesion was studied in a well documented L-selectin-dependent Stamper-Woodruff assay where frozen sections of lymph nodes were prepared, lymphocytes were placed on top of them, adhesion was permitted on a rotator and the number of adherent cells were quantitated visually. […]

For `CC(=O)N[C@H]1C(O)O[C@H](CO)[C@@H](O[C@@H]2O[C@H](CO)[C@H](O)[C@H](O)[C@H]2O)[C@@H]1O` (stereo partly shown) [glycan 1 (FIG. 8), N-acetyllactosamine, reference compound], the “fucosylation by Fuc-TIV, acceptor- and site-specificity (in words)” value (“fucosylation by Fuc-TIV” below) [1] was “rapidly fucosylates” and the “Transfer rate (reference acceptor)” value ([1]; reference acceptor for Fuc-TIV) was ~3.9 pmol/μg protein/h.
With `CC(=O)N[C@H]1[C@H]([C@H](O)[C@H](O)CO)O[C@@](O[C@H]2[C@@H](O)[C@@H](CO)O[C@@H](O[C@H]3[C@H](O)[C@@H](NC(C)=O)C(O)O[C@@H]3CO)[C@@H]2O)(C(=O)O)C[C@@H]1O` (stereo partly shown) [glycan 2 (FIG. 8), SAα2-3 'LN, reference compound] the “Transfer rate (reference acceptor)” value ([2]; reference acceptor for Fuc-TVII) was ~3.2 pmol/μg protein/h and the “fucosylation by Fuc-TIV” value [1] was “ineffective”.
LN1-3'LN1-3'LN [glycan 12 (FIG. 8)] was tested, and the “share of Fuc-TIV fucose transfer at the innermost / reducing end LN unit (residue 1)” value [1] was 28%, the “share of Fuc-TIV fucose transfer at the middle LN unit (residue 2)” value [1] was 47% and the “share of Fuc-TIV fucose transfer at the terminal (sialylated or non-reducing end) LN unit” value (“share … (sialylated or non-reducing end) LN unit” for short) [1] was 25%.
With “LNβ1-3 'LNβ1-3'Galβ1-OMe [glycan 11 (FIG. 8)]” the “fucosylation by Fuc-TIV” value [1] was “transferred efficiently”, the “share of Fuc-TIV fucose transfer at the middle LN unit (residue 2)” value [1] was 67% and the “share … (sialylated or non-reducing end) LN unit” value [1] was 33%.
In the case of LNβ1-3'Lex [glycan 14 (FIG. 8)], the “fucosylation by Fuc-TIV” value [1] is reported as “transferred rapidly”.
Lexβ1-3 'LN [glycan 13 (FIG. 8)] was tested, and the “fucosylation by Fuc-TIV” value [1] was “transferred rapidly”.
“SAα2,3'LNβ1,3'LNβ1,3' (SAα2,3'LNβ1,3'LNβ1,6')LN [glycan 5]” was tested, and the “effect on lymphocyte adhesion to HEV (in words)” value ([3]; 50 nM) was “no effect in lymphocyte binding to HEV” and the “effect on lymphocyte adhesion/binding to HEV (in words)” value ([3]; peripheral rat lymph node HEV) was “did not show inhibitory effects”.
With “SAα2-3'LNβ1-3'LNβ1-3'LN [glycan 4 (FIG. 8)]” the “fucosylation by Fuc-TVII, acceptor- and site-specificity (in words)” value [2] was “transfers preferentially to the sialylated, distal LN residue”, the “rate of Fuc-TVII transfer to the reducing end LN unit (residue 1), times slower than to the sialylated LN residue” value ([2]; residue 1 vs residue 3) was 84 times slower and the “rate of Fuc-TVII transfer to the middle LN unit (residue 2), times slower than to the sialylated LN residue” value ([2]; residue 2 vs residue 3) was 17 times slower. For the same compound, the “fucosylation by Fuc-TIV” value [1] was “efficiently fucosylates; also recorded: transfers rapidly to sialoglycan 4, at both "inner" LN units; also recorded: efficient conversion of glycan 4 to glycan 8 in two steps catalyzed by Fuc-TIV, but not by Fuc-TVII” and the “rate of Fuc-TIV transfer to the sialylated LN unit (residue 3), times slower than to both inner LN units” value ([1]; residue 3 vs residues 1 and 2) was 30-40 times slower.
For “SAα2-3'LNβ1-3'Lexβ1-3'LN [glycan 7 (FIG. 8)]”, the “fucosylation by Fuc-TIV” value [1] was “effectively utilizes”, the “share of Fuc-TIV fucose transfer at the innermost / reducing end LN unit (residue 1)” value [1] was 86% and the “share … (sialylated or non-reducing end) LN unit” value [1] was “Less than 5%”.
In the case of “SAα2-3'LNβ1-3Lex β1-3'[^14 C]Lex [glycan 8 (FIG. 8)]”, the “fucosylation by Fuc-TVII, acceptor- and site-specificity (in words)” value [2] is reported as “nearly as rapidly as glycan 2”, the “fucosylation by Fuc-TIV” value [1] is reported as “ineffective” and the “rate of Fuc-TIV reaction as % of the rate catalyzed by Fuc-TVII” value ([1]; transfer to distal sialylated LN unit giving SAα2-3'Lexβ1-3'Lexβ1-3'Lex) is reported as 6-7%.

From US6191271A, “Synthetic divalent sLex containing polylactosamines and methods for use” (Glycim Oy, priority 1998, dated 2001)
